Laboratory results taken from patent publication US20110245294A1, “METHODS OF IMPROVING QUALITY OF SLEEP” (THERAVIDA, INC., priority 2010, published 2011).

Key:
healthy volunteers = details: some studies have suggested; cited from earlier work
[1] = tested on: patients being treated for OAB
Source text: Enrollment of subjects already taking this medication was used to enable the collection of steady-state baseline information and to minimize discontinuations during the 4-week treatment period. On three consecutive days, subjects were asked to complete paper diaries where the subject answered questions related to the degree of difficulty of sleep and responded by using a VAS. These questions and VAS have been validated and used in other clinical studies. Furthermore, each subject relinquished the completed diary at the end of each treatment period following a review by clinic staff.
The methods used to collect information for assessment of quality of sleep, subjects were asked specific questions and they rated their quality of sleep using a VAS. The mean of the values obtained on each of the three days was used as the sole value for the baseline or treatment value. The methods used to evaluate effect on quality of sleep of the combination and oxybutynin alone are widely used and considered standard.
The VAS is a validated scale utilized in clinical trials and registrational studies of many drugs. Patients were instructed on how to complete the diary over 3 consecutive days and perform VAS assessments for quality of sleep on the diary days. The ratings were from 0 to 100 on a 100-mm line, and the patient was asked to rate themself by marking the horizontal line. For instance, quality of sleep was quantified as 0=easy and 100=difficult.

SMILES | effect on sleep (healthy volunteers) | VAS quality of sleep response versus baseline or monotherapy, in words ([1]; 100-point mm scale, reduction from baseline) | Change in LSM from Baseline in Quality of Sleep ([1]; ITT population, N = 42, lower scores indicate improvement from baseline, P value 0.0073 between treatments) [mm] | Quality of Sleep Value (VAS), mean ([1]; mean over subjects, 0=easy, 100=difficult, 2 weeks treatment, baseline mean 37.6 mm) [mm]
CCN(CC)CC#CCOC(=O)C(O)(c1ccccc1)C1CCCCC1 (centres unmarked) [Oxybutynin, oxybutynin] | adverse effect on the sleep | unchanged from baseline | 3.7 | 41.3
O=C(O[C@H]1C[C@H]2CC[C@@H](C1)[N+]21CCCC1)C(O)(c1ccccc1)c1ccccc1 [trospium] | adverse effect on the sleep |  |  | 
